# Results: patent US20080064725A1, “INTRATHECAL ADMINISTRATION OF TRIPTAN COMPOSITIONS TO TREAT NON-MIGRAINE PAIN” (priority 2006, published 2008)
# Key:
# CD1 male mice [1] = assay: radiant heat to the hindpaw (Hargreaves test), baseline thresholds; format: in vivo
# CD1 male mice [2] = assay: carrageenan-induced thermal and mechanical hypersensitivity
# CD1 male mice [3] = assay: formalin test of pain behavior
# CD1 male mice [4] = assay: spared nerve injury (SNI) model of neuropathic pain; format: in vivo
# Experimental: Spared nerve injury (SNI) model of neuropathic pain. A model of partial sciatic nerve injury was used in which the peroneal and sural nerves were selectively ligated and cut, sparing the tibial nerve. […] Animals were injected in a blinded cross-over manner, in which half of the animals received sumatriptan on one day and saline on the other.
# CD1 male mice [5] = assay: hot plate test of acute thermal pain; format: in vivo
# CD1 male mice [6] = assay: CFA-induced persistent inflammation, mechanical hyperalgesia; format: in vivo; settings: IT 0.0006, 0.006, 0.01, 0.06 μg; days 3-7 after CFA
# Experimental: Intrathecal sumatriptan reduces the hyperalgesic effects of persistent inflammation induced by Complete Freunds Agent (CFA). CFA injection produces a prolonged period of mechanical hyperalgesia that persists and remains stable during days 3-7 after injection into the plantar surface of the hindpaw. CD1 male mice were used. Mechanical thresholds were tested on the first day, prior to a single injection of CFA to a hindpaw (baseline). By day 3 after CFA injection animals were hyperalgesic (post CFA 3d). Animals were tested for a sumatriptan response on 4 successive days (days 3-6) after CFA. A mechanical threshold was determined on each successive day prior to the administration of intrathecal sumatriptan. Doses of sumatriptan tested are: 0.0006 μg, 0.006 μg, 0.01 μg, and 0.06 μg, all in the volume of 5 μl. Mechanical thresholds were then determined at 30 and 60 min after the injection. The average withdrawal thresholds for the CFA-treated hindpaw at […] after the administration of each dose of sumatriptan was measured. The antihyperalgesic effect of each of these doses, expressed as a percent of the pre-injection threshold for that day, were compared to the original baseline.
# Persistent inflammation after CFA. […] Hindpaw swelling pre- and 72 hours postinjection was measured to confirm the effects of the injection.
# CD1 male mice [7] = assay: Rotarod test for sedative and sensorimotor effects; format: in vivo; settings: SC 300, 600 μg/kg or IT 0.06, 0.60 μg; one hour after dosing
# Experimental: To screen for sedative and other adverse sensorimotor effects, mice were tested on a Rotarod (Ugo Basile, Comerio, Italy). The time in which mice were able to balance on a rod rotating on its axis at a constant velocity of 15 rpm were measured. The total duration of each trial was 300 sec. On the day prior to the test, animals accommodated to the task with three separate training trials. […] A single trial was used for each dose and route; reported times represent % change from the baseline value for each animal ±SEM.
# CD1 male mice [8] = assay: mechanical nociceptive thresholds with calibrated monofilaments, baseline; format: in vivo
# [9] = sumatriptan SC 300, 600 μg/kg or IT 0.06, 0.60 μg, unstimulated baseline state
# [10] = intrathecal, 24 hours after carrageenan to hindpaw, dose-dependent
smiles,measurement,setting,value
CNS(=O)(=O)Cc1ccc2[nH]cc(CCN(C)C)c2c1 [sumatriptan],Hargreaves test (radiant heat to hindpaw) threshold,CD1 male mice [1]; [9],no significant changes in threshold
same,time after injection at which antinociceptive effect was significant,"CD1 male mice [2]; IT sumatriptan, carrageenan model",30 min
same,"behavior after carrageenan, SC drug compared with control IT saline",CD1 male mice [2]; SC sumatriptan,did not differ
same,pain thresholds of unstimulated contralateral hindlimb,"CD1 male mice [2]; carrageenan model, sumatriptan",did not affect pain thresholds
same,thermal latencies versus baseline (analgesic effect beyond reversal of hyperalgesia),"CD1 male mice [2]; intrathecal sumatriptan, carrageenan-treated hindpaw",latencies exceeded those at baseline
same,mechanical hypersensitivity after carrageenan,CD1 male mice [2]; [10],completely reversed
same,thermal hypersensitivity after carrageenan,CD1 male mice [2]; [10],completely reversed
same,"formalin test, second phase (11-60 min) pain behavior","CD1 male mice [3]; IT 0.006, 0.06, 0.60 μg one hour before formalin, dose-dependent",profound reduction of pain behavior
same,"formalin test, second phase pain behavior","CD1 male mice [3]; systemic (SC) 300, 600 μg/kg one hour before formalin","modestly reduced second phase behaviors, but only at the highest dose tested"
same,mechanical hypersensitivity produced by nerve injury (SNI),"CD1 male mice [4]; SNI 7 d, regardless of dose or route of delivery, IT 0.6 μg, 30-120 min after drug",completely without effect
same,nociceptive thresholds of unaffected contralateral leg,"CD1 male mice [4]; SNI model, IT sumatriptan",unaffected
same,hot-plate test threshold (latency),CD1 male mice [5]; [9],no significant changes in threshold
same,mechanical hypersensitivity after intraplantar CFA,CD1 male mice [6],reduced mechanical hypersensitivity
same,sedation or sensorimotor incoordination on the Rotarod test,CD1 male mice [7],no evidence of confounding deficits due to sedation or sensorimotor incoordination
same,"mechanical pain threshold, calibrated monofilaments",CD1 male mice [8]; [9],no significant changes in threshold
"CN1CC[C@]23c4c5ccc(O)c4O[C@H]2[C@@H](O)C=C[C@H]3[C@H]1C5.O=S(=O)(O)O [morphine, morphine sulfate]",Hargreaves test analgesic response,"CD1 male mice [1]; positive control, 10 nmol IT",robust analgesic response
same,analgesia in carrageenan model,CD1 male mice [2]; IT morphine,"profound analgesia, with all animals reaching the cutoff latency"
same,"formalin test, first phase pain behavior","CD1 male mice [3]; positive control, 10 nmol IT",eliminated
same,"formalin test, second phase pain behavior","CD1 male mice [3]; positive control, 10 nmol IT",eliminated
same,analgesia in SNI model,CD1 male mice [4]; IT morphine,"profound analgesia, to cutoff latencies"
same,hot-plate test analgesic response,"CD1 male mice [5]; positive control, 10 nmol IT",robust analgesic response
same,mechanical pain test analgesic response,"CD1 male mice [8]; positive control, 10 nmol IT",robust analgesic response
